Key:
ALK5 [1] = target: T1, ALK5 (Homo sapiens, UniProt P36897); experiment: FSBA covalent modification and protection by competitors, followed by LC/MS; format: binding; conditions: for Mass Peak (relative percentage), FSBA-modified ALK5 peak: peak 35,405 Da; for Mass Peak (relative percentage), unmodified ALK5 peak: peak 34,972 Da
T1 construct: recombinantly expressed and purified kinase domain of the transforming growth factor (TGF)-β type I receptor; made in house; host or cells: baculovirus expression system
T1 sequence (P36897 205-495 limits assumed): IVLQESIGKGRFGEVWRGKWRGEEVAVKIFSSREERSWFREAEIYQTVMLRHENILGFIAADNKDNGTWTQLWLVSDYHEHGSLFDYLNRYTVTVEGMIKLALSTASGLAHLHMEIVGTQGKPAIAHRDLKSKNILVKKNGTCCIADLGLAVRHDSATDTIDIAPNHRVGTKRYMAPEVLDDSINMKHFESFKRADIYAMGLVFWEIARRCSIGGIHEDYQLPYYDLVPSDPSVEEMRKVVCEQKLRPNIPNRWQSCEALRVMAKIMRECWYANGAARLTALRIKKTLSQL

ALK4 = target: T2, ALK4 (Homo sapiens, UniProt P36896); experiment: FSBA covalent modification and protection by competitors, followed by LC/MS; format: binding; conditions: for Mass Peak (relative percentage), unmodified ALK4 peak: peak 35,025 Da; for Mass Peak (relative percentage), FSBA-modified ALK4 peak: peak 35,459 Da
T2 sequence (P36896 24-505): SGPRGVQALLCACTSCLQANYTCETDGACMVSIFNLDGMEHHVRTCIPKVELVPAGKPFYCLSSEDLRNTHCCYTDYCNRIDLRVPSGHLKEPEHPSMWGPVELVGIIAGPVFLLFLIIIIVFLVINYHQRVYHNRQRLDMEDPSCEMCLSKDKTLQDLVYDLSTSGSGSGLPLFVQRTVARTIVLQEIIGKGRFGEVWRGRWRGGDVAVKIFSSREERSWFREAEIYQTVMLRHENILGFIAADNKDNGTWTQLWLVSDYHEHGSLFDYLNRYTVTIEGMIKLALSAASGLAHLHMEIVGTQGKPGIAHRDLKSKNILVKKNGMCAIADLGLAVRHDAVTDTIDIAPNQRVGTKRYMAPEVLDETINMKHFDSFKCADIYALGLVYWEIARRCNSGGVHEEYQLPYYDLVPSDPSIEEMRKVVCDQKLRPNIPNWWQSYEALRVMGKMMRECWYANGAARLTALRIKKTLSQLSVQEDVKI

[2] = test system: proteins in HeLa cell lysate; experiment: Profiling kinases from complex proteome with biotin-FSBA, Western blot; format: binding
CDK2 = CDK2 (Homo sapiens, UniProt P24941); experiment: FSBA covalent modification and protection by competitors, followed by LC/MS; format: binding; conditions: for Mass Peak (relative percentage), unmodified CDK2 peak: peak 33,971 Da; for Mass Peak (relative percentage), FSBA-modified CDK2 peak: peak 34,404 Da
ALK5 [3] = target: T1, ALK5; experiment: Biotin-FSBA binding and competition detected by Western blot (avidin-HRP); conditions: biotin-FSBA 20 μM
[4] = target: T3, ALK5 (kinase domain of the TGF-β type I receptor) (Homo sapiens, UniProt P36897); experiment: ^14C-FSBA affinity labeling detected by autoradiography; format: binding; conditions: ˜20 μM ^14C-FSBA, 1 hour
T3 construct: recombinantly expressed and purified kinase domain of the transforming growth factor (TGF)-β type I receptor; made in house; host or cells: baculovirus expression system
T3 sequence (P36897 205-495 limits assumed): T1 sequence (P36897 205-495 limits assumed)

For `C[C@@H](N)[C@H]1CC[C@H](C(=O)Nc2ccncc2)CC1` [Y-27632], the “Effect on FSBA binding to ALK5” value (ALK5 [1]; 5 μg ALK5, FSBA 40 μM, about 2 hours, LC/MS) was “had no effect on FSBA binding to ALK5”, the “Effect on FSBA labeling of ALK5” value (ALK5 [1]; 10 μg ALK5, 10 μM FSBA, 3 hours at room temperature, LC/MS) was “did not inhibit FSBA labeling of ALK5” and the “Effect on FSBA labeling of ROCK1” value (human ROCK1 (hROCK1)) was “abrogated FSBA labeling of ROCK1”. For the same molecule, the “Inhibition of FSBA labeling of hROCK1” value (human ROCK1 (hROCK1)) was “inhibits hROCK1 at a 1:1 ratio” and the “Mode of action on hROCK1” value (human ROCK1 (hROCK1)) was “competitive inhibitor of hROCK1”.
For `CN[C@@H]1C[C@H]2O[C@@](C)([C@@H]1OC)n1c3ccccc3c3c4c(c5c6ccccc6n2c5c31)C(=O)NC4` [staurosporine], the “Effect of staurosporine on FSBA binding to ALK5” value (ALK5 [1]) was “essentially blocked”, the “Effect of staurosporine on FSBA binding to ALK4” value (ALK4) was “essentially blocked” and the “Effect on biotin-FSBA band intensity in HeLa cell lysate” value ([2]; 80 μg lysate, 500 μM staurosporin 2 hours, then biotin-FSBA 20 μM 4 hours, Western blot (Example 12)) was “reduced intensity in selective bands”. The “Effect on biotin-FSBA band intensity in HeLa cell lysate” value ([2]; staurosporin 500 μM 2 hours, then biotin-FSBA 4 hours, Western blot (Example 11)) was “dramatic decrease in band intensity for selected bands”.
In the case of `Nc1ncnc2c1ncn2[C@@H]1O[C@H](COP(=O)(O)OP(=O)(O)OP(=O)(O)O)[C@@H](O)[C@H]1O` [ATP], the “Mass Peak (relative percentage), FSBA-modified ALK5 peak” value (ALK5 [1]; FSBA 10 μM plus ATP 50 μM) is reported as 35,405 Da (100%), the “Mass Peak (relative percentage), unmodified ALK5 peak” value (ALK5 [1]; FSBA 10 μM plus ATP 100 μM) is reported as 34,972 Da (30%) and the “Mass Peak (relative percentage), FSBA-modified ALK5 peak” value (ALK5 [1]; FSBA 10 μM plus ATP 100 μM) is reported as 35,405 Da (70%),. The “Mass Peak (relative percentage), unmodified ALK5 peak” value (ALK5 [1]; FSBA 10 μM plus ATP 500 μM) was 34,972 Da (100%), the “ATP concentration at which most of the covalent modification of ALK5 by FSBA was inhibited” value (ALK5 [1]; FSBA 10 μM, LC/MS) was 0.5 mM and the “Mass Peak (relative percentage), unmodified ALK4 peak” value (ALK4; FSBA 10 μM plus ATP 50 μM) was 35,025 Da (5%). For the same molecule, the “Mass Peak (relative percentage), FSBA-modified ALK4 peak” value (ALK4; FSBA 10 μM plus ATP 50 μM) was 35,459 Da (95%),, the “Mass Peak (relative percentage), unmodified ALK4 peak” value (ALK4; FSBA 10 μM plus ATP 100 μM) was 35,025 Da (30%) and the “Mass Peak (relative percentage), FSBA-modified ALK4 peak” value (ALK4; FSBA 10 μM plus ATP 100 μM) was 35,459 Da (70%),. For the same molecule, the “Mass Peak (relative percentage), unmodified ALK4 peak” value (ALK4; FSBA 10 μM plus ATP 500 μM) was 35,025 Da (100%), the “ATP concentration at which most of the covalent modification of ALK4 by FSBA was inhibited” value (ALK4; FSBA 10 μM, LC/MS) was 0.5 mM and the “Mass Peak (relative percentage), unmodified CDK2 peak” value (CDK2; FSBA 10 μM plus ATP 1 mM) was 33,971 Da (20%). The “Mass Peak (relative percentage), FSBA-modified CDK2 peak” value (CDK2; FSBA 10 μM plus ATP 1 mM) was 34,404 Da (80%),, the “Mass Peak (relative percentage), unmodified CDK2 peak” value (CDK2; FSBA 10 μM plus ATP 5 mM) was 33,971 Da (90%) and the “Mass Peak (relative percentage), FSBA-modified CDK2 peak” value (CDK2; FSBA 10 μM plus ATP 5 mM) was 34,404 Da (10%),. The “Mass Peak (relative percentage), unmodified CDK2 peak” value (CDK2; FSBA 10 μM plus ATP 10 mM) was 33,971 Da (100%), the “ATP concentration necessary to block FSBA binding to CDK2” value (CDK2; FSBA 10 μM, LC/MS) was 5 mM and the “ATP concentration at which biotin-FSBA/ALK5 bands were no longer visible” value (ALK5 [3]) was ≥ 1.0 mM. The “Effect of ATP on ^14C-FSBA labeling of ALK5 by autoradiography” value ([4]; 1 mM ATP) was “most of the labeling was blocked” and the “Effect of ATP on ^14C-FSBA labeling of ALK5 by autoradiography” value ([4]; 10 mM ATP) was “autoradiograph did not detect ^14C-FSBA binding”.
